Data from the supplement of paper PMC10307832.

Key:
Assay in all cases: relative viability (nuclei count vs DMSO), 5 days (fraction); higher = more cells survive
FH535 + Phenformin = compound: CC1=C(C=CC(=C1)[N+](=O)[O-])NS(=O)(=O)C2=C(C=CC(=C2)Cl)Cl [FH535] + N=C(N)NC(=N)NCCc1ccccc1 [Phenformin] (partner 250 µM)
Summary of the method: (§1)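 Values are medians from duplicate plates. Each reflects relative viability, defined as the nuclei count of treated wells over that of vehicle wells. Lung cancer cell lines in 1536-well plates were pin-tool dosed one day after seeding with one drug alone or with a fixed anchor-drug dose plus five library-drug doses (not always all listed) in √10 steps, then fixed, stained and imaged at 4× after 5 days.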

FH535 + Tozasertib = compound: CC1=C(C=CC(=C1)[N+](=O)[O-])NS(=O)(=O)C2=C(C=CC(=C2)Cl)Cl [FH535] + Cc1cc(Nc2cc(N3CCN(C)CC3)nc(Sc3ccc(NC(=O)C4CC4)cc3)n2)n[nH]1 [Tozasertib] (partner 0.1 µM)
Summary of the method: as §1

FH535 + Bortezomib = compound: CC1=C(C=CC(=C1)[N+](=O)[O-])NS(=O)(=O)C2=C(C=CC(=C2)Cl)Cl [FH535] + CC(C)C[C@H](NC(=O)[C@H](Cc1ccccc1)NC(=O)c1cnccn1)B(O)O [Bortezomib] (partner 0.002 µM)
Summary of the method: as §1

FH535 + Linsitinib = compound: CC1=C(C=CC(=C1)[N+](=O)[O-])NS(=O)(=O)C2=C(C=CC(=C2)Cl)Cl [FH535] + C[C@]1(O)C[C@@H](c2nc(-c3ccc4ccc(-c5ccccc5)nc4c3)c3c(N)nccn32)C1 [Linsitinib] (partner 1 µM)
Summary of the method: as §1

FH535 + Pemetrexed = compound: CC1=C(C=CC(=C1)[N+](=O)[O-])NS(=O)(=O)C2=C(C=CC(=C2)Cl)Cl [FH535] + Nc1nc2[nH]cc(CCc3ccc(C(=O)N[C@@H](CCC(=O)O)C(=O)O)cc3)c2c(=O)[nH]1 [Pemetrexed] (partner 0.2 µM)
Summary of the method: as §1

Row | Cell Line | relative viability (FH535 + Phenformin; first compound 0.04 µM) | relative viability (FH535 + Phenformin; first compound 0.1265 µM) | relative viability (FH535 + Phenformin; first compound 0.4 µM) | relative viability (FH535 + Phenformin; first compound 1.265 µM) | relative viability (FH535 + Tozasertib; first compound 0.04 µM) | relative viability (FH535 + Tozasertib; first compound 0.1265 µM) | relative viability (FH535 + Tozasertib; first compound 0.4 µM) | relative viability (FH535 + Tozasertib; first compound 1.265 µM) | relative viability (FH535 + Bortezomib; first compound 0.1265 µM) | relative viability (FH535 + Bortezomib; first compound 0.4 µM) | relative viability (FH535 + Bortezomib; first compound 1.265 µM) | relative viability (FH535 + Linsitinib; first compound 0.1265 µM) | relative viability (FH535 + Linsitinib; first compound 0.4 µM) | relative viability (FH535 + Linsitinib; first compound 1.265 µM) | relative viability (FH535 + Pemetrexed; first compound 0.04 µM) | relative viability (FH535 + Pemetrexed; first compound 0.1265 µM) | relative viability (FH535 + Pemetrexed; first compound 0.4 µM) | relative viability (FH535 + Pemetrexed; first compound 1.265 µM) | relative viability (FH535 + Bortezomib; first compound 0.04 µM) | relative viability (FH535 + Linsitinib; first compound 0.04 µM)
1 | NCI-H23 | 0.786 | 0.739 | 0.655 | 0.555 | 0.281 | 0.344 | 0.466 | 0.301 | 1.25 | 1.04 | 1.11 | 0.633 | 0.628 | 0.567 | 0.517 | 0.782 | 0.625 | 0.436 | – | –
2 | NCI-H647 | 0.524 | 0.508 | 0.431 | 0.42 | 0.314 | 0.145 | 0.176 | 0.42 | 0.584 | 0.818 | 0.95 | 1.11 | 1.17 | 0.912 | 0.2 | 0.219 | 0.187 | 0.152 | 0.964 | 1.09
3 | NCI-H1755 | 0.539 | 0.627 | 0.558 | 0.494 | 0.569 | 0.533 | 0.515 | 0.525 | 0.951 | 0.793 | 0.817 | 0.996 | 0.912 | 0.919 | 0.406 | 0.42 | 0.342 | 0.413 | 0.982 | 0.968
4 | SW 1573 | 0.387 | 0.372 | 0.307 | 0.163 | 0.171 | 0.164 | 0.215 | 0.161 | 1.12 | 1.07 | 0.862 | 0.785 | 0.855 | 0.703 | 0.768 | 0.745 | 0.902 | 0.755 | 0.957 | 0.621
5 | NCI-H650 | 0.411 | 0.417 | 0.388 | 0.289 | 0.603 | 0.783 | 0.766 | 0.51 | 0.854 | 0.794 | 0.506 | 1.09 | 0.832 | 0.603 | 0.926 | 0.956 | 0.915 | 0.68 | 0.704 | 0.687
6 | UMC-11 | 0.289 | 0.378 | 0.28 | 0.211 | 0.189 | 0.213 | 0.196 | 0.202 | 0.478 | 0.48 | 0.54 | 1.1 | 0.962 | 0.805 | 0.653 | 0.799 | 0.788 | 0.763 | 0.545 | 1.05
7 | HCC-15 | 0.432 | 0.443 | 0.343 | 0.213 | 0.457 | 0.414 | 0.409 | 0.482 | 0.874 | 0.896 | 0.713 | 0.862 | 0.884 | 0.595 | 0.256 | 0.216 | 0.229 | 0.212 | 0.975 | 0.879
8 | NCI-H2126 | 0.525 | 0.53 | 0.457 | 0.348 | 0.809 | 0.823 | 0.832 | 0.583 | 1.1 | 0.986 | 0.879 | 0.719 | 0.705 | 0.619 | 0.639 | 0.659 | 0.662 | 0.536 | 1.07 | 0.746
